Results from US20230131899A1, “INHIBITORS OF MICROBIALLY INDUCED AMYLOID” (Axial Therapeutics, Inc., priority 2020, published 2023).
Read-outs that look alike come from different tables or passages of the source.

Assays:
[1] = system: csgA expression in E. coli MC4100; assay: csgA expression relative to housekeeping genes recA and cysG in E. coli MC4100 monocolonized mice (FIGS. 8A-D); type: in vivo
[2] = biological target: T1, human α-synuclein (Homo sapiens, UniProt P37840); assay: Cell-free Thioflavin T assay of α-synuclein aggregation (αSyn ThT Assay); type: biochemical; details: αSyn 50 μM
T1 construct: the full-length gene for untagged human α-synuclein was inserted; made in house; host or cells: E. coli BL21(DE3), plasmid derived from pT7 or pET11a
How it was run: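 Inhibition is reported as 100% minus background-corrected ThT signal relative to vehicle wells, taken at 36, 47, 48 or 72 h or the last read. Reactions held 50 μM recombinant α-synuclein, 20-100 μM compound, 20-40 μM ThT and 1% DMSO. Incubation was at 37° C., shaken, with a glass bead.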

[3] = system: number of fecal pellets; assay: Fecal pellet output in MC4100 mice treated with compound vs control chow (FIG. 5); type: in vivo, mouse; details: 12-14 weeks of age; compared to MC4100-control chow group; statistical difference was not reached
[4] = system: time to descend from a pole; assay: Pole descent test in MC4100 mice treated with compound vs control chow (FIG. 7); type: in vivo, mouse; details: 18-20 weeks of age; vs MC-4100 control chow group
[5] = system: fecal water content; assay: Fecal water content in MC4100 mice treated with compound vs control chow (FIG. 6); type: in vivo, mouse; details: 12-14 weeks of age; vs MC4100-control chow group
[6] = system: CsgA expression in E. coli MC4100; assay: Monocolonized Mouse Model: csgA expression in fecal pellets by qRT-PCR; details: 30 mg/kg, day five of treatment, relative to mice treated with vehicle alone (FIGS. 4A-B)
[7] = class symbol, compounds 100 μM, read-out: αSyn ThT Assay % inhibition, activity range
[8] = mean percent inhibition relative to DMSO control, compounds 100 μM, read-out: αSyn ThT Assay % inhibition

`O=C(O)[C@@H]1CN(Cc2ccccc2)c2c(-c3cccc(C(F)(F)F)c3)c(Cc3cccc4ccccc34)c(Cl)c(=O)n21` (single isomer, unassigned) [Compound 004a] was tested, and the “csgA expression relative to housekeeping genes recA and cysG” value ([1]; 12-14 weeks of age) was “reduction of csgA expression”, the “csgA expression relative to housekeeping genes recA and cysG” value ([1]; 14-16 weeks of age) was “repeated and observed again” and the inhibition at 100 µM [2, 7] was 31 to 60%. For the same compound, the inhibition at 100 µM [2, 8] was 42%, the “number of fecal pellets a mouse produced at 15 min interval” value [3] was “overall increase in number of fecal pellets” and the “time to descend from a pole into a home cage” value [4] was “trend towards improvement of the phenotype”. The fecal water content [5] was “restored a constipation phenotype”.
With `CN1CC(C(=O)O)n2c(c(-c3cccc(C(F)(F)F)c3)c(Cc3cccc4ccccc34)c(NC3CCCC3)c2=O)S1(=O)=O` (stereo not shown) [Compound 070, 7-(cyclopentylamino)-2-methyl-8-(naphthalen-1-ylmethyl)-6-oxo-9-(3-(trifluoromethyl)phenyl)-3,4-dihydro-2H,6H-pyrido[1,2-e][1,2,5]thiadiazine-4-carboxylic acid 1,1-dioxide] the “csgA expression in E. coli MC4100 monocolonized mice” value [6] was “reduction of csgA expression”, the inhibition at 100 µM ([2]; mean % inhibition of αSyn aggregation relative to DMSO control, compounds at 100 μM, read-out: αSyn ThT Assay % Inhibition) was 53% and the inhibition at 100 µM ([2]; compounds at 100 μM, class symbol, read-out: αSyn ThT Assay % Inhibition (activity range)) was 31 to 60%.
`O=C(O)C1CN(CCCCCCCN2CC(C(=O)O)n3c2c(-c2cccc(C(F)(F)F)c2)c(Cc2cccc4ccccc24)c(Cl)c3=O)c2c(-c3cccc(C(F)(F)F)c3)c(Cc3cccc4ccccc34)c(Cl)c(=O)n21` (stereo not shown) [Compound 188, 1,1′-(heptane-1,7-diyl)bis(6-chloro-7-(naphthalen-1-ylmethyl)-5-oxo-8-(3-(trifluoromethyl)phenyl)-1,2,3,5-tetrahydroimidazo[1,2-a]pyridine-3-carboxylic acid)] gave an inhibition at 100 µM [2, 7] of over 60% and an inhibition at 100 µM [2, 8] of 62%.
With `COc1ccc(CN2CC(C(=O)O)n3c2c(-c2cccc(C(F)(F)F)c2)c(Cc2cccc4ccccc24)c(Cl)c3=O)cc1` (stereo not shown) [Compound 192, 6-chloro-1-(4-methoxybenzyl)-7-(naphthalen-1-ylmethyl)-5-oxo-8-(3-(trifluoromethyl)phenyl)-1,2,3,5-tetrahydroimidazo[1,2-a]pyridine-3-carboxylic acid] the inhibition at 100 µM [2, 7] was 31 to 60% and the inhibition at 100 µM [2, 8] was 59%.
Compound `O=C(O)C1CN(CCCCCCN2CC(C(=O)O)n3c2c(-c2cccc(C(F)(F)F)c2)c(Cc2cccc4ccccc24)c(Cl)c3=O)c2c(-c3cccc(C(F)(F)F)c3)c(Cc3cccc4ccccc34)c(Cl)c(=O)n21` (stereo not shown) [Compound 193, 1,1′-(hexane-1,6-diyl)bis(6-chloro-7-(naphthalen-1-ylmethyl)-5-oxo-8-(3-(trifluoromethyl)phenyl)-1,2,3,5-tetrahydroimidazo[1,2-a]pyridine-3-carboxylic acid)] has an inhibition at 100 µM [2, 7] of over 60% and an inhibition at 100 µM [2, 8] of 69%.
With `O=C(O)C1CN(Cc2ccccc2)c2c(-c3cccc(C(F)(F)F)c3)c(Cc3cccc4ccccc34)c(F)c(=O)n21` (stereo not shown) [Compound 194, 1-benzyl-6-fluoro-7-(naphthalen-1-ylmethyl)-5-oxo-8-(3-(trifluoromethyl)phenyl)-1,2,3,5-tetrahydroimidazo[1,2-a]pyridine-3-carboxylic acid] the inhibition at 100 µM [2, 7] was 31 to 60% and the inhibition at 100 µM [2, 8] was 57%.
`O=C(O)C1CN(Cc2cccc(O)c2)c2c(-c3cccc(C(F)(F)F)c3)c(Cc3cccc4ccccc34)c(Cl)c(=O)n21` (stereo not shown) [Compound 196, 6-chloro-1-(3-hydroxybenzyl)-7-(naphthalen-1-ylmethyl)-5-oxo-8-(3-(trifluoromethyl)phenyl)-1,2,3,5-tetrahydroimidazo[1,2-a]pyridine-3-carboxylic acid] gave an inhibition at 100 µM [2, 7] of over 60% and an inhibition at 100 µM [2, 8] of 61%.
In the case of `O=C(O)C1CN(CCCO)c2c(-c3cccc(C(F)(F)F)c3)c(Cc3cccc4ccccc34)c(Cl)c(=O)n21` (stereo not shown) [Compound 197, 6-chloro-1-(3-hydroxypropyl)-7-(naphthalen-1-ylmethyl)-5-oxo-8-(3-(trifluoromethyl)phenyl)-1,2,3,5-tetrahydroimidazo[1,2-a]pyridine-3-carboxylic acid], the inhibition at 100 µM [2, 7] is reported as 31 to 60% and the inhibition at 100 µM [2, 8] is reported as 39%.
In the case of `O=C(O)C1CN(Cc2ccccc2)c2c(-c3cccc(Br)c3)c(Cc3cccc4ccccc34)c(Cl)c(=O)n21` (stereo not shown) [Compound 198, 1-benzyl-8-(3-bromophenyl)-6-chloro-7-(naphthalen-1-ylmethyl)-5-oxo-1,2,3,5-tetrahydroimidazo[1,2-a]pyridine-3-carboxylic acid], the inhibition at 100 µM [2, 7] is reported as over 60% and the inhibition at 100 µM [2, 8] is reported as 75%.
Compound `O=C(O)C1CN(CCCCCO)c2c(-c3cccc(C(F)(F)F)c3)c(Cc3cccc4ccccc34)c(Cl)c(=O)n21` (stereo not shown) [Compound 199, 6-chloro-1-(5-hydroxypentyl)-7-(naphthalen-1-ylmethyl)-5-oxo-8-(3-(trifluoromethyl)phenyl)-1,2,3,5-tetrahydroimidazo[1,2-a]pyridine-3-carboxylic acid] has an inhibition at 100 µM [2, 7] of 11 to 30% and an inhibition at 100 µM [2, 8] of 29%.
`O=C(O)C1CN(Cc2cccc3ccccc23)c2c(-c3cccc(C(F)(F)F)c3)c(Cc3cccc4ccccc34)c(Cl)c(=O)n21` (stereo not shown) [Compound 200, 6-chloro-1,7-bis(naphthalen-1-ylmethyl)-5-oxo-8-(3-(trifluoromethyl)phenyl)-1,2,3,5-tetrahydroimidazo[1,2-a]pyridine-3-carboxylic acid] was tested, and the inhibition at 100 µM [2, 7] was over 60% and the inhibition at 100 µM [2, 8] was 84%.
`O=C(O)C1CN(Cc2ccc(-c3ccccc3)cc2)c2c(-c3cccc(C(F)(F)F)c3)c(Cc3cccc4ccccc34)c(Cl)c(=O)n21` (stereo not shown) [Compound 202, 1-([1,1′-biphenyl]-4-ylmethyl)-6-chloro-7-(naphthalen-1-ylmethyl)-5-oxo-8-(3-(trifluoromethyl)phenyl)-1,2,3,5-tetrahydroimidazo[1,2-a]pyridine-3-carboxylic acid] gave an inhibition at 100 µM [2, 7] of 31 to 60% and an inhibition at 100 µM [2, 8] of 54%.
`O=C(O)C1CN(CCC2CCCCC2)c2c(-c3cccc(C(F)(F)F)c3)c(Cc3cccc4ccccc34)c(Cl)c(=O)n21` (stereo not shown) [Compound 207, 6-chloro-1-(2-cyclohexylethyl)-7-(naphthalen-1-ylmethyl)-5-oxo-8-(3-(trifluoromethyl)phenyl)-1,2,3,5-tetrahydroimidazo[1,2-a]pyridine-3-carboxylic acid] gave an inhibition at 100 µM [2, 7] of over 60% and an inhibition at 100 µM [2, 8] of 71%.
`CC(C)(C)c1ccc(Cc2c(-c3cccc(C(F)(F)F)c3)c3n(c(=O)c2Cl)C(C(=O)O)CN3Cc2ccccc2)cc1` (stereo not shown) [Compound 216, 1-benzyl-7-(4-(tert-butyl)benzyl)-6-chloro-5-oxo-8-(3-(trifluoromethyl)phenyl)-1,2,3,5-tetrahydroimidazo[1,2-a]pyridine-3-carboxylic acid] gave an inhibition at 100 µM [2, 7] of 31 to 60% and an inhibition at 100 µM [2, 8] of 46%.
